This note sets out measurements from patent US10766888B1, “HMOX1 inducers” (Mitobridge Inc., priority 2019, dated 2020).

Series [1] relates to HbSS Townes sickle mice. The series can be described thus: F-cells (HbF-containing red blood cells) in HbSS Townes sickle mice. It counts as in vivo. An excerpt:
Blood smears were made using heparinized whole blood for F-cells staining. Stained F-cells and total red blood cells were counted on the blood smears in four fields; mean=77 red blood cells/field. F-cells are expressed as a percentage of total red blood cells. Values are means+SD. One-Way ANOVA with Dunnett's Multiple comparison to Vehicle **p≤0.01, ***p≤0.001, ****p≤0.0001
(§1) Dosing Scheme of HMOX Inducers to HbSS Townes Sickle Mice
(§2) HbSS Townes sickle mice were oral gavaged once daily with Vehicle or the compound of Example 17 listed below for 8 days. To minimize experimental inconsistency, fresh formulation was prepared every day and vortexed prior to drawing test article into syringe for each dosing, and dosing was performed by the same individual throughout the day. The last-day dose was administered by oral gavage 4 hours prior to hemin infusion described below. • 1. […]
F-cells were stained on whole blood smears by the Kleihauer-Betke method using a fetal cell stain kit (Simmler) according to the manufacturer's instructions. F-cells and total erythrocytes were counted in 4 separate microscopic fields at 100× magnification for each mouse. The F-cells were expressed as a percentage of total erythrocytes (i.e., red blood cells). […]

A short description of series [2]: PD study: compound concentration in mouse liver. The class given is in vivo, C57BL/6 mice. The conditions noted are these: male, C57BL/6, mouse, 50 mg/kg, 50 mpk oral. On the procedure:
9-10 week old male C57BL/6 mice were dosed orally with 50 mg/kg of vehicle or compound formulated in 5% w/v tween 80 and 0.5% methyl cellulose. At indicated time points (3 and 6 hours or or 4 and 8 hours post-dosing as shown in the results below), whole blood was collected, animal was sacrificed and liver was collected. Blood samples were transferred to vials containing 4 μL of 10% w/v EDTA, centrifuged at 6000 rpm for 8 in below 10° C. to obtain plasma. Samples were frozen and later processed for HMOX1 protein levels as indicated below: […]

In the next series the test system is VCAM-1. The series can be described thus: Gene expression (VCAM-1) in primary human endothelial cells stimulated with TNFa. It counts as cell-based. The conditions noted are these: HPAEC. As for the experimental part: Example 150. Gene Expression in Primary Human Endothelial Cells
Inflammatory conditions in endothelial cells increase expression of adhesion molecules, such as VCAM-1, ICAM-1 and E-selectin through NF-kB signaling. HMOX1−/− endothelial cells show increased expression of VCAM-1 in response to TNF stimulation, as compared to HMOX+/+endothelial cells. See Seldon et al., J Immunol Dec. 1, 2007, 179 (11) 7840-7851.
Primary human pulmonary artery endothelial cells (HPAEC) (Lonza # CC-2530) were seeded in 12-well plates (TrueLine # TR5001) at 200 k cells per well and placed at 37° C. in 5% CO2. 18-24 hr post seeding, cells were treated with the compound of Example 17 via media change. 24 hr post treatment with the compound, cells were treated with 10 ng/mL TNFa (Invitrogen # PHC3015 in H2O) alone or with the compound of Example 17. […] 20 ng cDNA was mixed with water, iQ™ SYBR® Green Supermix (BioRad #170-8886), and 300 nM primer (IDT # NM_001078) for a total 10 ul reaction and loaded into 384-well white qPCR plates and subsequently analyzed using BioRad CFX384. […] To calculate fold change, the ΔCt on a per sample basis was calculated as Ct (Gene of interest)−Ct (Average of reference genes). The ΔΔCt was then calculated as ΔCt (experimental sample)−Average ΔCt (control group). Fold change was calculated as 2^−ΔΔCT.

For series [3], the system named is HbSS Townes sickle mice. The series can be described thus: Heme-induced vaso-occlusion (stasis) in HbSS Townes sickle mice. It counts as in vivo. The conditions noted are these: 10, 25, 50 mg/kg PO once daily for 8 days, 1 h after heme infusion.
Excerpt: Townes-SS mice were gavaged once daily with Vehicle or the compound of Example 17 for 8 days. After the last gavage dorsal skin-fold chambers were implanted on the mice and 20-22 flowing venules were selected and mapped in the subcutaneous skin using intravital microscopy. Mice were then infused via the tail vein with Panhematin (3.2 μmots heme/kg body weight). One hour after infusion each venule was re-examined for microvascular stasis (no flow) and data are expressed as % stasis. Stasis values are means+SD. One-Way ANOVA with Dunnett's Multiple comparison to Vehicle ****P<0.0001
as §1, §2
Male and female sickle mice, approximately 12 weeks of age, were weighed before surgery. […] All of the selected venules were re-examined at 1 h after hemin infusion, and the number of static (no flow) venules was counted and expressed as percent stasis. […]

Entries after “also recorded” stand apart in the source; their conditions may differ.

Turning to `Cn1c(Nc2nc3ccccc3o2)nc2cc(C(=O)NCCOCCO)ccc21` [Example 17, 2-(benzo[d]oxazol-2-ylamino)-N-(2-(2-hydroxyethoxy)ethyl)-1-methyl-1H-benzo[d]imidazole-5-carboxamide], the “percent F-cells compared with vehicle (in words)” value with HbSS Townes sickle mice [1] (10, 25, 50 mg/kg PO once daily for 8 days) is recorded as “significantly increased; also recorded: more than doubled; also recorded: did not appear to be dose responsive; also recorded: increase”. The “percent F-cells (of total red blood cells)” value in the series on HbSS Townes sickle mice [1] (all doses tested (10, 25, 50 mg/kg PO, 8 days)) was 55-70%. In addition, the concentration at 4 h in series [2] (4 hours (Study 702), read-out: Liver Conc uM (4 h)) was determined as 11 µM. Further, the concentration at 8 h in series [2] (8 hours (Study 702), read-out: Liver Conc uM (8 h)) stood at 4.9 µM. Moreover, the “TNF-α mediated endothelial cell activation / VCAM-1 expression (in words)” value with VCAM-1 (24 hr pre-treatment, 10 ng/mL TNFa 4 hours) was “reduced this TNF-α mediated endothelial cell activation”. For the same molecule, the “toxicity by visual inspection of cells” value in the series with VCAM-1 (after 4 hours of TNFa treatment) is “no toxicity”. Moreover, the “microvascular stasis compared with Vehicle (in words)” value with HbSS Townes sickle mice [3] was “significantly reduced; also recorded: dose responsively inhibit”.
